Among the test systems are MOLT-4; Malme-3M; NCI-H460; EKVX; SK-MEL-28; NCI-H23; OVCAR-8; HCT-116; UACC-257; MDA-MB-435; DU-145; A498; NCI-H226; SK-OV-3; SF-268; OVCAR-4; A549; IGROV-1; HCT-15; HT-29.
Experiment in all cases: NCI anticancer screen, dose series, 48 h

SMILES strings stand for the structures.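 Tested at 5 concentrations; 48 h exposure; 96-well plates; endpoints linearly interpolated, else capped at highest concentration. GI50 is the concentration that inhibits growth by half.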 Calls of active or inactive are those of the source. No stated cut-off is given here; in the data, active = GI50 up to about 1.1 µM and inactive = higher. Where only a bound is given, the exact number is not on record here.

7 compounds from ChEMBL document CHEMBL1201862, “PubChem BioAssay data set” (2004) can be followed below.

In the case of `CCOc1cc(NC(C)=O)ccc1C(=O)NN1C(=O)CSC1c1ccc(O)c(OC)c1` (stereo not given), the GI50 in the experiment with MOLT-4 was 23.8 µM (inactive); in the experiment on Malme-3M, 46.8 µM (inactive); in the experiment with NCI-H460, 43.5 µM (inactive); with EKVX, 42.7 µM (inactive); with SK-MEL-28, 84.5 µM (inactive); in the experiment with NCI-H23, 61.7 µM (inactive). Also, the GI50 in the experiment on OVCAR-8 is 23.9 µM (inactive); with HCT-116, 60.1 µM (inactive); with UACC-257, 48.4 µM (inactive); in the experiment with MDA-MB-435, 46.2 µM (inactive); in the experiment with DU-145, > 100 µM (inactive); with A498, > 100 µM (inactive). Further, the GI50 in the experiment with NCI-H226 was 69.5 µM (inactive); in the experiment on SK-OV-3, 93.5 µM (inactive); in the experiment with SF-268, 71.4 µM (inactive); with OVCAR-4, 39.9 µM (inactive); with A549 it was 38.9 µM (inactive); in the experiment on IGROV-1, 60.4 µM (inactive). The GI50 in the experiment on HCT-15 is 40.8 µM; in the experiment on HT-29, 73.6 µM (inactive).

In the case of `CCOc1c(OC)cc(-c2nc3n(n2)C(=O)C(CC)S3)cc1OC` (stereo not given), the GI50 in the experiment with MOLT-4, with Malme-3M, in the experiment with NCI-H460, in the experiment on EKVX, with SK-MEL-28 and in the experiment with NCI-H23 was > 10 µM (inactive) throughout. The GI50 with OVCAR-8, in the experiment on HCT-116, in the experiment with UACC-257, with MDA-MB-435, in the experiment on DU-145 and in the experiment with A498 was > 10 µM (inactive) each time. The GI50 in the experiment with NCI-H226, with SK-OV-3, with SF-268, in the experiment with OVCAR-4, with A549 and in the experiment with IGROV-1 was > 10 µM (inactive) throughout. Besides, the results for the GI50 in the experiment on HCT-15 and with HT-29 were more than 10 µM and > 10 µM (inactive), respectively.

Regarding `N=C(N)NS(=O)(=O)c1ccc(NC(=O)c2c3ccccc3nc3ccccc23)cc1`, the GI50 in the experiment with MOLT-4, in the experiment with Malme-3M, with NCI-H460, in the experiment on EKVX, in the experiment with SK-MEL-28 and in the experiment on NCI-H23 was > 100 µM (inactive) each time. The GI50 in the experiment with OVCAR-8, in the experiment on HCT-116, in the experiment on UACC-257, in the experiment with MDA-MB-435, in the experiment on DU-145 and in the experiment on A498 was > 100 µM (inactive) each time. Also, the GI50 in the experiment on NCI-H226 is 43.1 µM (inactive); in the experiment on SK-OV-3, > 100 µM (inactive); in the experiment with SF-268 it was > 100 µM (inactive); with OVCAR-4, > 100 µM (inactive); with A549 it was > 100 µM (inactive); in the experiment with IGROV-1, > 100 µM (inactive). The GI50 in the experiment on HCT-15 was more than 100 µM; in the experiment on HT-29, > 100 µM (inactive).

Regarding `Clc1ccc(/C=N/c2ccc3c(c2)Cc2ccccc2-3)c(Cl)c1`, the GI50 with MOLT-4, in the experiment on Malme-3M, in the experiment on NCI-H460, in the experiment with EKVX, in the experiment on SK-MEL-28 and in the experiment with NCI-H23 was > 100 µM (inactive) throughout. The GI50 is > 100 µM (inactive) in the experiment on OVCAR-8; 58.1 µM (inactive) in the experiment with HCT-116; > 100 µM (inactive) in the experiment with UACC-257; 50.7 µM (inactive) in the experiment on MDA-MB-435; > 100 µM (inactive) in the experiment on DU-145; > 100 µM (inactive) with A498. For the same compound, the GI50 in the experiment on NCI-H226, in the experiment with SK-OV-3, with SF-268, in the experiment with OVCAR-4, in the experiment with A549 and in the experiment with IGROV-1 was > 100 µM (inactive) each time. The results for the GI50 with HCT-15 and with HT-29 were 40.6 µM and > 100 µM (inactive), respectively.

For `COc1cc2c(/C=C3/C(=O)Nc4ccccc43)c(Cl)n(Cc3ccc(Cl)cc3)c2cc1C`, the GI50 with MOLT-4 is 0.264 µM (active); with Malme-3M it was 0.843 µM (active); with NCI-H460, 0.359 µM (active); in the experiment with EKVX, 1.18 µM (inactive); in the experiment with SK-MEL-28, 0.386 µM (active); in the experiment on NCI-H23 it was 0.24 µM (active). Further, the GI50 with OVCAR-8 is 0.299 µM (active); in the experiment with HCT-116, 0.264 µM (active); in the experiment on UACC-257, 0.378 µM (active); in the experiment with MDA-MB-435 it was 0.193 µM (active); in the experiment with DU-145 it was 0.306 µM (active); in the experiment with A498, 0.733 µM (active). Besides, the GI50 in the experiment with NCI-H226 was 0.336 µM (active); in the experiment with SK-OV-3 it was 0.305 µM (active); in the experiment with SF-268, 0.675 µM (active); with OVCAR-4, 0.632 µM (active); in the experiment with A549, 0.366 µM (active); with IGROV-1, 0.538 µM (active). The figures for the GI50 with HCT-15 and in the experiment on HT-29 were 0.242 µM and 0.296 µM (active), respectively.

With `CC(C)(C)OC(=O)NC(Cc1ccc(OC(C)(C)C)cc1)C(=O)N[C@H]1CCC[C@H]1C(=O)NC(Cc1ccccc1)C(=O)N1CCCC1C(N)=O` (stereo not given in full), the GI50 with MOLT-4, in the experiment on Malme-3M, with NCI-H460, in the experiment with EKVX, in the experiment on SK-MEL-28 and in the experiment on NCI-H23 was > 100 µM (inactive) in each case. Further, the GI50 in the experiment with OVCAR-8, in the experiment with HCT-116, in the experiment with UACC-257, in the experiment with MDA-MB-435, with DU-145 and with A498 was > 100 µM (inactive) throughout. Also, the GI50 in the experiment on NCI-H226, in the experiment with SK-OV-3, in the experiment on SF-268, in the experiment with OVCAR-4, in the experiment on A549 and with IGROV-1 was > 100 µM (inactive) in each case. Moreover, the GI50 in the experiment on HCT-15 is more than 100 µM; in the experiment on HT-29 it was > 100 µM (inactive).

Turning to `CC1CC[C@@]2(OC1)OC1C[C@H]3[C@@H]4CC[C@H]5CC(OC6OC(CO)C(O)C(OC7OC(CO)C(OC8OC(CO)C(O)C(OC9OC(CO)C(O)C(O)C9O)C8OC8OC(CO)C(O)C(O)C8O)C(O)C7O)C6O)[C@H](O)CC5(C)[C@H]4CCC3(C)C1[C@@H]2C` (stereo not given in full), the GI50 was 5.18 µM (inactive) in the experiment on MOLT-4; 8.18 µM (inactive) in the experiment with Malme-3M; 7.06 µM (inactive) in the experiment on NCI-H460; 4.15 µM (inactive) with EKVX; 7.45 µM (inactive) in the experiment on SK-MEL-28; 5.31 µM (inactive) in the experiment on NCI-H23. The GI50 was 1.7 µM (inactive) in the experiment on OVCAR-8; 5.14 µM (inactive) in the experiment on HCT-116; 8.75 µM (inactive) with UACC-257; 6.59 µM (inactive) with MDA-MB-435; 5.47 µM (inactive) with DU-145; 1.06 µM (active) with A498. Besides, the GI50 was 6.53 µM (inactive) in the experiment with NCI-H226; 6.95 µM (inactive) in the experiment on SK-OV-3; 5 µM (inactive) in the experiment with SF-268; 2.4 µM (inactive) with OVCAR-4; 9.4 µM (inactive) in the experiment with A549; 1.44 µM (inactive) with IGROV-1. Further, the figures for the GI50 in the experiment with HCT-15 and in the experiment on HT-29 were 9.48 µM and 3.52 µM (inactive), respectively.
